# From paper PMC11062899, “De novo development of small cyclic peptides that are orally bioavailable” (Nature Chemical Biology, 2023)
# Where “and” joins values, the source holds several entries; their conditions need not be identical. Identical values can stand only once. Like-named read-outs stand apart in the source and are kept apart here.
# Tests used:
# rat α-thrombin = biological target: T1, rat α-thrombin (Rattus norvegicus, UniProt P18292); assay: Protease inhibition, Ki for rat α-thrombin (fluorogenic substrate Z-Gly-Gly-Arg-AMC); assay type: biochemical; conditions: for slope normalized to DMSO, rat alpha thrombin inhibition / Rat alpha thrombin inhibition, slope normalized to DMSO: replicates R1-R3
# T1 construct: rat α-thrombin (Molecular Innovations) were used at final concentrations of 2 nM and 3 nM; purchased Molecular Innovations
# Outline: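 Ki derived through Cheng–Prusoff from IC50s (four-parameter logistic fit) against activity of peptide-free controls. Product fluorescence was read every 3 min over 30 min at 25 °C, substrate Z-Gly-Gly-Arg-AMC at 50 μM. Enzyme was 2 nM human or 3 nM rat α-thrombin, pH 7.4 buffer.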
# [1] = Peptide stability in simulated intestinal fluid (SIF); assay type: in vitro ADME, porcine; conditions: pig, simulated gi fluid; 8 h, 37 °C, pH 6.8; read-out: Proteolytic stability: SIF (8 h) % remaining
# Outline: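 Peptide from a 1 mM DMSO stock was added to fluid pre-warmed at 37 °C. SGF was pH 1.2 NaCl with porcine pepsin (0.32 g per 100 ml), and SIF was pH 6.8 potassium phosphate with porcine pancreatin (1 g per 100 ml). Supernatant peptide was quantified by LC–MS, with residual expressed as T1/T0.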
# [2] = Passive artificial membrane permeability (PAMPA);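 on Permeability% Average: top well sample relative to theoretical equilibrium sample by TIC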
# [3] = Metabolic stability in rat liver microsomes (RLMs); conditions: for TIC value of compound, metabolic stability RLM: replicates R1-R3; for microsomal CLint / half-life: rat, microsomes
smiles,measurement,setting,value
O=C1C[C@H]2CCCN2C(=O)[C@H](Cc2ccccc2)NC(=O)[C@@H](NC(=O)c2ccc(Cl)s2)CCC=CCCCCN1 [peptide 43],"slope normalized to DMSO, rat alpha thrombin inhibition",rat α-thrombin; peptide 2.50E+01 uM,4.6 and 8.1 and 4.9
same,"slope normalized to DMSO, rat alpha thrombin inhibition",rat α-thrombin; peptide 3.05E-03 uM,90.9 and 88.2 and 90.2
same,"slope normalized to DMSO, rat alpha thrombin inhibition",rat α-thrombin; peptide 3.12E+00 uM,7.5 and 10.1 and 7.1
same,"slope normalized to DMSO, rat alpha thrombin inhibition",rat α-thrombin; peptide 3.81E-04 uM,96.2 and 101.3 and 91.7
same,"slope normalized to DMSO, rat alpha thrombin inhibition",rat α-thrombin; peptide 3.91E-01 uM,12.4 and 9.5 and 6.1
same,"slope normalized to DMSO, rat alpha thrombin inhibition",rat α-thrombin; peptide 4.77E-05 uM,105.1 and 89.9 and 85.4
same,"slope normalized to DMSO, rat alpha thrombin inhibition",rat α-thrombin; peptide 4.88E-02 uM,32.8 and 33.4 and 28.7
same,"slope normalized to DMSO, rat alpha thrombin inhibition",rat α-thrombin; peptide 5.00E+01 uM,3.1 and 5.6 and 0.5
same,"slope normalized to DMSO, rat alpha thrombin inhibition",rat α-thrombin; peptide 6.10E-03 uM,72.5 and 78.4 and 84.7
same,"slope normalized to DMSO, rat alpha thrombin inhibition",rat α-thrombin; peptide 6.25E+00 uM,7.7 and -0.5
same,"slope normalized to DMSO, rat alpha thrombin inhibition",rat α-thrombin; peptide 7.63E-04 uM,95.8 and 97.3 and 89.3
same,"slope normalized to DMSO, rat alpha thrombin inhibition",rat α-thrombin; peptide 7.81E-01 uM,10.1 and 10.3 and 8.9
same,"slope normalized to DMSO, rat alpha thrombin inhibition",rat α-thrombin; peptide 9.54E-05 uM,96.1 and 92.0 and 94.2
same,"slope normalized to DMSO, rat alpha thrombin inhibition",rat α-thrombin; peptide 9.77E-02 uM,27.3 and 26.5 and 22.9
same,"Rat alpha thrombin inhibition, slope normalized to DMSO",rat α-thrombin; peptide concentration 1.00E+02 uM,5.4 and 5.2 and 4.3
same,"Rat alpha thrombin inhibition, slope normalized to DMSO",rat α-thrombin; peptide concentration 1.19E-05 uM,102.6 and 102.2 and 91.2
same,"Rat alpha thrombin inhibition, slope normalized to DMSO",rat α-thrombin; peptide concentration 1.22E-02 uM,54.9 and 61.5 and 61.2
same,"Rat alpha thrombin inhibition, slope normalized to DMSO",rat α-thrombin; peptide concentration 1.25E+01 uM,7.2 and 11.2 and 5.0
same,"Rat alpha thrombin inhibition, slope normalized to DMSO",rat α-thrombin; peptide concentration 1.53E-03 uM,90.8 and 92.4 and 84.4
same,"Rat alpha thrombin inhibition, slope normalized to DMSO",rat α-thrombin; peptide concentration 1.56E+00 uM,8.6 and 7.9 and 7.3
same,"Rat alpha thrombin inhibition, slope normalized to DMSO",rat α-thrombin; peptide concentration 1.91E-04 uM,101.3 and 100.0 and 99.0
same,"Rat alpha thrombin inhibition, slope normalized to DMSO",rat α-thrombin; peptide concentration 1.95E-01 uM,18.2 and 17.7 and 18.1
same,"Rat alpha thrombin inhibition, slope normalized to DMSO",rat α-thrombin; peptide concentration 2.38E-05 uM,104.9 and 102.6 and 101.9
same,"Rat alpha thrombin inhibition, slope normalized to DMSO",rat α-thrombin; peptide concentration 2.44E-02 uM,50.2 and 48.9 and 44.8
same,"Rat alpha thrombin inhibition, slope normalized to DMSO",rat α-thrombin; peptide concentration 2.50E+01 uM,4.6 and 8.1 and 4.9
same,"Rat alpha thrombin inhibition, slope normalized to DMSO",rat α-thrombin; peptide concentration 3.05E-03 uM,90.9 and 88.2 and 90.2
same,"Rat alpha thrombin inhibition, slope normalized to DMSO",rat α-thrombin; peptide concentration 3.12E+00 uM,7.5 and 10.1 and 7.1
same,"Rat alpha thrombin inhibition, slope normalized to DMSO",rat α-thrombin; peptide concentration 3.81E-04 uM,96.2 and 101.3 and 91.7
same,"Rat alpha thrombin inhibition, slope normalized to DMSO",rat α-thrombin; peptide concentration 3.91E-01 uM,12.4 and 9.5 and 6.1
same,"Rat alpha thrombin inhibition, slope normalized to DMSO",rat α-thrombin; peptide concentration 4.77E-05 uM,105.1 and 89.9 and 85.4
same,"Rat alpha thrombin inhibition, slope normalized to DMSO",rat α-thrombin; peptide concentration 4.88E-02 uM,32.8 and 33.4 and 28.7
same,"Rat alpha thrombin inhibition, slope normalized to DMSO",rat α-thrombin; peptide concentration 5.00E+01 uM,3.1 and 5.6 and 0.5
same,"Rat alpha thrombin inhibition, slope normalized to DMSO",rat α-thrombin; peptide concentration 6.10E-03 uM,72.5 and 78.4 and 84.7
same,"Rat alpha thrombin inhibition, slope normalized to DMSO",rat α-thrombin; peptide concentration 6.25E+00 uM,7.7 and -0.5
same,"Rat alpha thrombin inhibition, slope normalized to DMSO",rat α-thrombin; peptide concentration 7.63E-04 uM,95.8 and 97.3 and 89.3
same,"Rat alpha thrombin inhibition, slope normalized to DMSO",rat α-thrombin; peptide concentration 7.81E-01 uM,10.1 and 10.3 and 8.9
same,"Rat alpha thrombin inhibition, slope normalized to DMSO",rat α-thrombin; peptide concentration 9.54E-05 uM,96.1 and 92.0 and 94.2
same,"Rat alpha thrombin inhibition, slope normalized to DMSO",rat α-thrombin; peptide concentration 9.77E-02 uM,27.3 and 26.5 and 22.9
same,Ki,"rat α-thrombin; purified peptide, mean and s.d. of three measurements, read-out: Ki rat α-thrombin",0.0111 ± 0.0014 µM
same,IC50,"rat α-thrombin; single replicates R1-R3, read-out: Rat alpha thrombin inhibition, IC50",0.0171 µM and 0.0202 µM and 0.0231 µM
same,Ki,"rat α-thrombin; single replicates R1-R3, read-out: Rat alpha thrombin inhibition, Ki",0.00946 µM and 0.0112 µM and 0.0128 µM
same,remaining at 8 h,[1],91 ± 9%
same,PAMPA permeability: % permeability,"[2]; 50 μM, 12–18 h, acceptor concentration relative to equilibrium",66 ± 19%
same,Permeability% (single replicates R1–R3),"[2]; 50 μM, 12 h (Fig. 6d)",52.91% and 57.15% and 54.20%
same,Permeability% Average,"[2]; 50 μM, 12 h (Fig. 6d)",54.8%
same,Permeability% (single replicates R1–R3),"[2]; 50 μM, 13 h (Fig. 5d)",79.02% and 44.84% and 74.28%
same,Permeability% Average,"[2]; 50 μM, 13 h (Fig. 5d)",66.0%
same,Papp at 50 μM,"[2]; PAMPA, pH 7.4",9.77 ×10⁻⁶ cm/s
same,"TIC value of compound, metabolic stability RLM",[3]; 0 min,15121279 (2×) and 12636158
same,"TIC value of compound, metabolic stability RLM",[3]; 5 min,12214985 and 10185041 and 10498454
same,"TIC value of compound, metabolic stability RLM",[3]; 15 min,8936637 and 6181065 and 6718551
same,"TIC value of compound, metabolic stability RLM",[3]; 30 min,4407741 and 2845968 and 2692424
same,"TIC value of compound, metabolic stability RLM",[3]; 60 min,749207 and 393357 and 268692
same,CL (ul/min/mg protein) in RLMs (single replicates R1–R3),[3]; Fig. 5e source data,82.7957 ul/min/mg protein and 93.0201 ul/min/mg protein and 80.07 ul/min/mg protein and 82.80 ul/min/mg protein and 93.02 ul/min/mg protein
same,Half Life (min) in RLMs (single replicates R1–R3),[3]; Fig. 5e source data,16.74 min and 14.9 min
same,"Half Life, RLM",[3]; individual replicates R1-R3,16.74 min and 14.9 min
same,microsomal CLint,"[3]; CL (ul/min/mg protein) in RLMs (single replicates R1–R3), Fig. 5e source data",80.1 µL/min/mg
same,microsomal CLint,"[3]; Clearance (CL) in RLMs, calculated from half-life, mean and s.d. of three measurements",85 ± 6 µL/min/mg
same,half-life,"[3]; Half Life (min) in RLMs (single replicates R1–R3), Fig. 5e source data",17.3 min
same,half-life,"[3]; Half Life, RLM, individual replicates R1-R3",17.3 min
same,microsomal CLint,"[3]; pH 7.4, CL (ul/min/mg protein) in RLMs Average, Fig. 5e source data",85.3 µL/min/mg
same,half-life,"[3]; pH 7.4, Metabolic stability: Half life T1/2 (min), RLMs, mean and SD, three measurements",16.3 ± 1 min
